Consider three substances from patent US10342854B2, “Leptin active peptide having cd loop and E helix region mutations, coding gene thereof, and application thereof” (SHANGHAI YUANXIN BIOCHEMICAL SCIENCE AND TECHNOLOGY CO. LTD., priority 2015, dated 2019).

“Also recorded” adds a separate entry of the source.

Experiment [1] has as its system 3T3-L1 preadipocytes. The experiment can be described thus: MTT lipid-lowering (adipocyte-degrading) activity analysis on 3T3-L1 preadipocyte line. It counts as cell-based. Conditions: for adipocyte-degrading (adipocyte lysis) activity compared with positive controls H-LEP and Ros: preadipocytes stage, early differentiation stage D0-D2 and mature adipocyte stage D9, PEP-E 10^−6M, Ros 0.5 μM. As to the method: Lipid degradation activity of the synthesized leptin active peptide having CD-loop and helix E region mutations is analyzed on a cellular level by taking a 3T3-L1 preadipocyte line as a model. Specific operations are as follows:
a. leptin active peptide having CD-loop and helix E region mutations (PEP-E): diluted to 10^−3M with purified water and preserved at −20 degree C. for later use. After an experiment is started, working concentrations have 3 concentration gradients, that is, 10^−6M, 10−9M and 10^−11M;
b. positive control 1: H-LEP recombinant human-derived leptin protein (10221-HNAE, Beijing Sino Biological Inc.), diluted to 10^−6M with purified water and preserved at −20 degree C. for later use. After an experiment is started, the working concentration is 10^−9M.
c. positive control 2: Ros rosiglitazone, R2408, Sigma), diluted to a stock solution with a concentration of 2518 μM with DMSO and preserved at −20 degree C. for later use. After an experiment is started, the stock solution is diluted to a working solution of 0.5 μM with cell culture fluid.
d. negative control (Control): equivalent quantity of PBS
(1) inoculating 3T3-L1 preadipocytes in coming cell bind 96-well plates (totally inoculated with 3 plates, respectively plate a, plate b and plate c), wherein the inoculation density is 4500 cells/well; and marking, and standing and culturing at 37 degree C. in a 5% CO2 incubator. Each sample of each plate is operated repeatedly for 3 times, and the whole experiment is repeated for 3 times;
(2) continuously culturing for 48 hours after the cells are merged to 100% (enabling the cells to exit from a growth cycle, and starting induced differentiation.); and
i, taking out the plate a, respectively adding different amounts of leptin active peptide having CD-loop and helix E region mutations (PEP-E) to enable the working concentrations to be respectively 3 concentration gradients, that is, 10^−6M, 10^−9M and […], setting 2 positive controls, a negative control (PBS) and a blank control (3 repeated holes are set for each sample), and continuously standing and culturing at 37 degree C. in the 5% CO2 incubator.
ii, when culturing to 45 hours (that is, 3 hours before the end of drug treatment), taking out the plate a, and measuring MTT (preadipocytes). Specific operations: adding 20 μL of 5 mg/mL of MTT solution into each well, continuously standing and culturing at 37 degree C. in the 5% CO2 incubator for 3 hours, sucking and discarding the culture solution in the wells, adding 150 μL of DMSO into each well, horizontally shaking for 10 min, detecting a light absorption value at 492 nm by a microplate reader, and drawing a growth curve. […]
ii, when culturing to 45 hours (that is, 3 hours before the end of drug treatment), taking out the plate b, and measuring MTT (at the early differentiation stage, D0-D2). Specific operations: adding 20 μL of 5 mg/mL of MTT solution into each well; continuously standing and culturing at 37 degree C. in the 5% CO2 incubator for 3 hours, sucking and discarding the culture solution in the wells; adding 150 μL of DMSO into each well, horizontally shaking for 10 min, detecting a light absorption value at 492 nm by a microplate reader, and drawing a growth curve; […]

The conditions of experiment [2]: cited from earlier work.

Consider “H-LEP: recombinant human-derived leptin protein (10221-HNAE, Beijing Sino Biological Inc.) [reference compound]”, for which the “adipocyte lysis activity of positive control vs. negative control” value in experiment [1] (H-LEP 10^−9M, Ros 0.5 μM vs. PBS, P<0.05) is recorded as “obviously better than that of the negative control”.

Take “SCHLHWAPGLETLDSGVQEASGY (An amino acid sequence of the leptin active peptide having CD-loop and helix E region mutations) [PEP-E]”: in experiment [1] (10^−6M, 10^−9M, 10^−11M, preadipocytes, D0-D2, D9), the “dependence of lipid-lowering activity on concentration and cell differentiation period” value was “obvious concentration dependence and dependence in a cell differentiation period”. The “adipocyte-degrading (adipocyte lysis) activity compared with positive controls H-LEP and Ros” value in experiment [1] (10^−9M, 10^−11M, H-LEP 10^−9M, P<0.05) is “obviously better than that of the H-LEP; also recorded: obviously better than that of the Ros”; in experiment [1] (10^−9M, 10^−11M, H-LEP 10^−9M, P<0.05, listed as leptin active peptide having CD-loop and helix E region mutations), “obviously better than that of positive control-human-derived leptin protein (H-LEP) and a commercially available drug rosiglitazone (Ros,)”. The “lipid-lowering activity: stage and concentration of optimal effect” value in experiment [1] (three stages, three concentrations compared) is recorded as “optimal effect at the D0-D2 stage when the concentration is 10^−6M”.

For the substance “wild type human-derived leptin protein: leptin protein given to obese patients in the first human experiment”, in experiment [2] (73 tested obese patients), the “weight loss effect in obese patients” value is on record as “most of the patients do not have an obvious weight loss effect”. In addition, the weight loss in experiment [2] (only 2 of 73 patients, within 24 weeks) is 35 pounds.
